Like-named read-outs stand apart in the source and are kept apart here.
Columns and labels:
MC3T3-E1 cell line [1] = assay: MTT cytotoxicity assay, dose-response in MC3T3-E1 cells; format: cell-based; conditions: read-out: Toxicity IC50
Text: Without wishing to be bound by any theory, it is believed that the ionic liquids (ILs) structures prevent the hydrophobic effects of the imidazolium cation and thus cellular uptake by the introduction of a second cationic head. These structures, which are formed by two imidazolium rings linked by an alkyl chain and anionic counterpart, may result in non-toxic compounds because the dicationic structure will not be able to penetrate and alter the physical properties of the lipid bilayer. The ionic liquids were synthesized and performed preliminary studies with the dicationic imidazolium-based IL compounds as described above, and the IC50 values were assessed through MTT assay (Gindri et al., 2014).
The ionic liquids were synthesized and performed preliminary studies with the dicationic imidazolium-based IL compounds as described above, and the IC50 values were assessed through MTT assay (Egorova et al., 2014). The toxicity of ionic liquids was accessed using MC3T3-E1 cell lines. The cells were plated in 6-well plates and after 24 h, cells were treated with media containing a range of concentrations of ionic liquids. All concentrations tested for generation of dose-response curves. A non-linear regression sigmoidal dose-response curve was fitted to each set of values to allow the calculation of IC50 values.

S. mutans = S. mutans planktonic and biofilm CFU on IL-coated Ti in artificial saliva/BHI; format: cell-based, Streptococcus mutans
Method: To determine if ILs retain antimicrobial activity when applied to Ti, preliminary experiments with two ILs (IL9 and IL12) and S. mutans, an early colonizer. Control Ti, IL9-coated Ti, and IL12-coated Ti were immersed in artificial saliva/brain heart infusion (BHI) medium containing S. mutans for 24 h and 72 h. After this period, planktonic bacterial cells in the fluid medium in which disks were immersed, and biofilm cells, adhered to the disk surface, were quantified by serial dilution and plating.

[2] = Thermal analysis of pure ionic liquid and equimolar mixture with TiO2 nanoparticles; format: physicochemical
Method: In order to evaluate the affinity of ionic liquids with the titanium surface, experiments were conducted with imidazole derived ionic liquids having as contra-ion the anions Br^−, BF4^− and NTf2^−. In the study, TiO2 nanoparticles were used instead of bulk titanium in order to allow for a better understanding of the interaction of the selected ionic liquids with the Ti oxide film (TiO2). Thermal behavior of TiO2 pure (nanoparticles), ionic liquid pure and the equimolar mixture of TiO2 and the different ionic liquids attempted were evaluated. […] Based upon the loss of a glass transition and the introduction of a new melting point for the TiO2 nanoparticle and the [DBMIM]2[NTf2], without wishing to be bound by any theory, it is believed that a more organized structural arrangement is formed (Grindri, et al., 2014).

[3] = DLS of TiO2 particles and equimolar TiO2 + ionic liquid; format: physicochemical; conditions: for Rh1 hydrodynamic radius: IL + TiO2, relaxation mode 1; for Rh2 hydrodynamic radius: IL + TiO2, relaxation mode 2; for Thickness of IL film on TiO2 particles: difference IL + TiO2 minus TiO2
Method: To evaluate the morphologic characteristics of new structures formed by TiO2+ionic liquid both DLS and SEM techniques were used. […] DLS experiments were performed with TiO2 particles only, and with solutions of equimolar amounts of TiO2+ionic liquid. The hydrodynamic radius (Rh) of pure TiO2 particles and mixture of TiO2+ionic liquid was monitored and compared in order to analyze the formation of new organized phases related to ionic liquid film adhesion on TiO2 particles. […] The value from the difference between the size of TiO2+ionic liquid and TiO2 was used to calculate ionic liquid film thickness formed on TiO2 particles.
Comparing the data between pure TiO2 and the mixtures of [DBMIM]2[Br], [DBMIM]2[BF4] and [DBMIM]2[NTf2], it can be observed that in the first relaxation mode (Rh1) a small difference was detected between the size of the particles, which can be related with the single TiO2 nanoparticles, [DBMIM]2[Br], [DBMIM]2[BF4] and [DBMIM]2[NTf2] dispersed in solution. However, in the second relaxation mode a significant difference was noted between the size of pure TiO2 nanoparticles and TiO2+ionic liquid (Table 6). It was observed that Rh2 tended to increase with ionic liquid presence, which thus indicates film formation on the particles surface. Another interesting characteristic from the DLS results is that film thickness increased with hydrophobicity of anions (FIG. 1), which is in agreement with the trend reported by Ulbricht and Wittmar, 2012.

[4] = tested on: gingival epithelial (HGF-1); assay: Cell proliferation (MTT) on IL-coated Ti, gingival epithelial cells; format: cell-based; conditions: HGF-1, 1 and 7 days
[5] = tested on: osteoblast-like cells (MC3T3-E1); assay: Cell proliferation (MTT) on IL-coated Ti, osteoblast-like cells; format: cell-based; conditions: MC3T3-E1, 1 and 7 days
[6] = tested on: osteoblast-like cells (MC3T3-E1); assay: Alkaline phosphatase activity / osteoblast differentiation on IL-coated Ti; format: cell-based; conditions: day 1 and day 7
Text: FIGS. 6A-6F show osteoblast identification through alkaline phosphatase assay. Ti Control on day 1 (FIG. 6A) and day 7 (FIG. 6D) along with IL9 coated Ti shown on day 1 (FIG. 6B) and day 7 (FIG. 6E) are shown. […] Cell differentiation was observed after 7 days on Ti control and IL9 coated Ti in which osteoblast are distinguished from stem cells by the purple color of the stain as indicated by the black arrows. […] As such, these compounds can be considered to be non-toxic to cells while still maintaining anti-microbial properties.
Experiments were performed in which Ti control disks, IL9-coated Ti, and IL12-coated Ti were exposed to gingival epithelial (HGF-1) and osteoblast-like cells (MC3T3-E1) during periods of 1 and 7 days. It was observed that after 1 day both Ti control and IL-coated Ti were covered with a layer of osteoblast-like cells (FIGS. 6A & 6B) illustrating the initial cell attachment on the surface. […] In vitro and in vivo osteoblast cell differentiation can be characterized during a phase denominated matrix maturation. During this period, a high expression of alkaline phosphatase (AP) is observed and can be used as an early differentiation marker to evaluate the differentiation of stem cells into osteoblasts (Shang et al., 2014 and Wang et al., 2012). […]

MC3T3-E1 cell line [7] = conditions: monocationic analogue of IL1, comparison value; read-out: IC50 of monocationic IL; cited from earlier work

## CSCC[C@H](N)C(=O)O.CSCC[C@H](N)C(=O)O.C[n+]1ccn(CCCCCCCCCCn2cc[n+](C)c2)c1 [IL-12, 1,10-Bis(3-methylimidazolium-1-yl)decane dimethionine]
MC3T3-E1 cell line [1]
  IC50: 13.9 ± 2.7 mM
S. mutans; 24 h and 72 h immersion
  Antimicrobial activity of coated Ti against S. mutans: did not show significant antimicrobial activity

## 1,8-bis(3-methylimidazolium-1-yl)octane bis (trifluoromethane) sulfonimide [IL-14]
[2]; IL + TiO2 equimolar mixture
  Td1 first decomposition temperature: 463 °C
[2]; pure ionic liquid
  Td1 first decomposition temperature: 473 °C
[3]
  Rh1 hydrodynamic radius: 1.6 nm
  Rh2 hydrodynamic radius: 894.6 nm
[3]; relaxation mode 1
  Thickness of IL film on TiO2 particles: 0.9 nm
[3]; relaxation mode 2
  Thickness of IL film on TiO2 particles: 591.1 nm

## C[n+]1ccn(CCCCCCCCCCn2cc[n+](C)c2)c1.NC(Cc1ccccc1)C(=O)[O-].NC(Cc1ccccc1)C(=O)[O-] [IL-9, 1,10-Bis(3-methylimidazolium-1-yl)decane diphenylalanine]
[4]
  Cell proliferation versus Ti control: did not show significant differences
[5]
  Cell proliferation versus Ti control: did not show significant differences
MC3T3-E1 cell line [1]
  IC50: 8.5 ± 1.5 mM
[6]
  ALP activity / cell differentiation versus Ti control: without statistically significant differences
S. mutans; 72 h trial
  Anti-S. mutans activity of coated surface: retain significant anti-S. mutans activity
S. mutans; biofilm cells after 24 h, control Ti ~10^6 CFU
  S. mutans recovered from coated Ti surfaces: ~10^2 CFU

## 1,8-Bis(3-methylimidazolium-1-yl)octane diphenylalanine [IL-3]
MC3T3-E1 cell line [1]
  IC50: 8.3 ± 3 mM

## 1,8-Bis(3-methylimidazolium-1-yl)octane dileucine [IL-4]
MC3T3-E1 cell line [1]
  IC50: 12.5 ± 0.2 mM

## C[n+]1ccn(CCCCCCCCCCn2cc[n+](C)c2)c1.[Br-].[Br-] [IL-7, 1,10-Bis(3-methylimidazolium-1-yl)decane dibromide]
MC3T3-E1 cell line [1]; Mus musculus
  IC50: 12.3 ± 0.1 mM
other
  melting point: 130.77 °C

## CCCCCCCCn1cc[n+](C)c1 [[C8mim][Br]]
MC3T3-E1 cell line [7]
  IC50: 1.51 ± 0.2 mM

## C[n+]1ccn(CCCCCCCCn2cc[n+](C)c2)c1.F[B-](F)(F)F.F[B-](F)(F)F [IL-13, 1,8-bis(3-methylimidazolium-1-yl) octane tetrafluorborate]
[2]; IL + TiO2 equimolar mixture
  Td1 first decomposition temperature: 343.8 °C
  Td2 second decomposition temperature: 455.8 °C
[2]; pure ionic liquid
  Td1 first decomposition temperature: 346.8 °C
  Td2 second decomposition temperature: 455.8 °C
[3]
  Rh1 hydrodynamic radius: 0.7 nm
  Rh2 hydrodynamic radius: 513.0 nm
[3]; relaxation mode 1
  Thickness of IL film on TiO2 particles: 0.1 nm
[3]; relaxation mode 2
  Thickness of IL film on TiO2 particles: 209.5 nm

## 1,8-Bis(3-methylimidazolium-1-yl)octane dimethionine [IL-6]
MC3T3-E1 cell line [1]
  IC50: 24.2 ± 10.3 mM

## C[n+]1ccn(CCCCCCCCn2cc[n+](C)c2)c1.[Br-].[Br-] [IL-1, 1,8-bis(3-methylimidazolium-1-yl) octane bromide]
MC3T3-E1 cell line [1]; Mus musculus
  IC50: 24.6 ± 3.5 mM
[2]; IL + TiO2 equimolar mixture
  Td1 first decomposition temperature: 310.0 °C
  Td2 second decomposition temperature: 372.9 °C
[2]; pure ionic liquid
  Td1 first decomposition temperature: 307.5 °C
[3]
  Rh1 hydrodynamic radius: 0.8 nm
  Rh2 hydrodynamic radius: 421.9 nm
[3]; relaxation mode 1
  Thickness of IL film on TiO2 particles: 0.2 nm
[3]; relaxation mode 2
  Thickness of IL film on TiO2 particles: 118.4 nm

## 1,8-Bis(3-methylimidazolium-1-yl)octane dihistidine [IL-5]
MC3T3-E1 cell line [1]
  IC50: 25.7 ± 8.7 mM

## C[n+]1ccn(CCCCCCCCCCn2cc[n+](C)c2)c1 [IL-8, 1,10-Bis(3-methylimidazolium-1-yl)decane diascorbate]
MC3T3-E1 cell line [1]
  IC50: 3.1 ± 1.2 mM

## C[n+]1ccn(CCCCCCCCCCn2cc[n+](C)c2)c1.N[C@@H](Cc1c[nH]cn1)C(=O)O.N[C@@H](Cc1c[nH]cn1)C(=O)O [IL-11, 1,10-Bis(3-methylimidazolium-1-yl)decane dihistidine]
MC3T3-E1 cell line [1]
  IC50: 12.9 ± 1.1 mM

## 1,8-Bis(3-methylimidazolium-1-yl)octane diascorbate [IL-2]
MC3T3-E1 cell line [1]
  IC50: 3.6 ± 0.6 mM

## CC(C)C[C@H](N)C(=O)O.CC(C)C[C@H](N)C(=O)O.C[n+]1ccn(CCCCCCCCCCn2cc[n+](C)c2)c1 [IL-10, 1,10-Bis(3-methylimidazolium-1-yl)decane dileucine]
MC3T3-E1 cell line [1]
  IC50: 12.3 ± 0.5 mM
